IC50 and inhibition data for 18 compounds are collected here from ChEMBL document CHEMBL1135166, “Synthesis of triazole-Tethered pyrrolidine libraries: novel ECE inhibitors” (Bioorg Med Chem Lett, 2002).

One may read the IC50 as the concentration needed to halve the response being measured. Usually inhibition stands for the drop in the measured response relative to a control, in per cent. A high value points to a strong effect.

Experiment [1] addresses T1, Endothelin-converting enzyme 1 (Homo sapiens, UniProt P42892).
T1 sequence (P42892 whole entry): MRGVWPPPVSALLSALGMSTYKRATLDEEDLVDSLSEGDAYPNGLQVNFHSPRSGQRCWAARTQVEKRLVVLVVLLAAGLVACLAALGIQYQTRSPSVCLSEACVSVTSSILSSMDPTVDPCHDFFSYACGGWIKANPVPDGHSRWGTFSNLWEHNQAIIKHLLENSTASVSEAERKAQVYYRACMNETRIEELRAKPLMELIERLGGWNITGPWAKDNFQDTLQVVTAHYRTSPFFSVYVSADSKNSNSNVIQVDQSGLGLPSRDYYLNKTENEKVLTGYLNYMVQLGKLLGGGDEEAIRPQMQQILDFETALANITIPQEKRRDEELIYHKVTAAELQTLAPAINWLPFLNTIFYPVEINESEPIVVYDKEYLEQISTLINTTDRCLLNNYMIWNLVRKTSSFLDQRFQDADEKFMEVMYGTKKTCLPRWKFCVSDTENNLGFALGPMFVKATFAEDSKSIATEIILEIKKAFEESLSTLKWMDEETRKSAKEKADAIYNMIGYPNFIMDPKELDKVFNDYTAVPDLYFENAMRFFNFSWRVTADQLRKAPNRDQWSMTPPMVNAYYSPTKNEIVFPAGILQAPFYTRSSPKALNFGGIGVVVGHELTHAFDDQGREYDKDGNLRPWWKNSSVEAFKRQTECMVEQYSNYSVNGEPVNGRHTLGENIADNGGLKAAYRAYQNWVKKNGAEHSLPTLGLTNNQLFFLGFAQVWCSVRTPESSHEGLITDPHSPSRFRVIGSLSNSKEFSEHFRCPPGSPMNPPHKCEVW
Briefly: (§1) Tested for inhibitory concentration against human Endothelin-converting enzyme 1 at 10 uM.

The target of experiment [2] is T2, Endothelin-converting enzyme 1 (Homo sapiens) (UniProt P42892).
T2 sequence (whole entry): T1 sequence (P42892 whole entry)
The description is as §1.

`CSc1nnc([C@@H]2C[C@@H](S)CN2S(=O)(=O)c2ccc3ccccc3c2)n1-c1c(F)c(F)cc(F)c1F`: the half-maximal inhibitory concentration (IC50) in experiment [1] amounted to 0.25 µM.

`CSc1nnc([C@@H]2C[C@@H](S)CN2S(=O)(=O)c2ccc(F)cc2)n1-c1ccccc1` gave a 50% inhibitory concentration (IC50) in experiment [1] of 8.95 µM. For the compound `CSc1nnc([C@@H]2C[C@@H](S)CN2S(=O)(=O)c2ccc(Cl)cc2)n1-c1ccccc1`, in experiment [1], the IC50 came out at 1.2 µM. In turn, `O=S(=O)(c1ccc2ccccc2c1)N1C[C@H](S)C[C@H]1c1nnc(SCC2CC2)n1-c1ccccc1` gave a 50% inhibitory concentration (IC50) in experiment [1] of 0.7 µM. Regarding `CSc1nnc([C@@H]2C[C@@H](S)CN2S(=O)(=O)c2ccc3ccccc3c2)n1-c1ccc(C(F)(F)F)cc1`, the half-maximal inhibitory concentration (IC50) in experiment [1] was determined as 0.36 µM. Same read-out and setting: the same measure for `CSc1nnc([C@@H]2C[C@@H](S)CN2S(=O)(=O)c2ccc(C)cc2)n1-c1ccccc1`: 4.4 µM. Same read-out and setting: the same measure for `CC(C)CSc1nnc([C@@H]2C[C@@H](S)CN2S(=O)(=O)c2ccc3ccccc3c2)n1-c1ccccc1`: 0.72 µM; for `CSc1nnc([C@@H]2C[C@@H](S)CN2C(=O)Nc2ccc(F)cc2)n1-c1ccccc1`: 17.7 µM; for `CSc1nnc([C@@H]2C[C@@H](S)CN2S(C)(=O)=O)n1-c1ccccc1`: 15.5 µM.

Turning to `CCCCOC(=O)N1C[C@H](S)C[C@H]1c1nnc(SC)n1-c1ccccc1`, in experiment [1], the half-inhibitory concentration (IC50) was determined as 2.7 µM. With `CCCSc1nnc([C@@H]2C[C@@H](S)CN2S(=O)(=O)c2ccc3ccccc3c2)n1-c1ccccc1`, half-maximal inhibition in experiment [1] (IC50) was put at 0.28 µM. The compound `CSc1nnc([C@@H]2C[C@@H](S)CN2S(=O)(=O)c2ccc3ccccc3c2)n1C` showed an inhibition in experiment [2] of 43%.

On to `CSc1nnc([C@@H]2C[C@@H](S)CN2S(=O)(=O)c2ccc3ccccc3c2)n1-c1ccccc1`, for which, in experiment [1], half-maximal inhibition (IC50) was put at 0.5 µM. `CSc1nnc([C@@H]2C[C@@H](S)CN2S(=O)(=O)N(C)C)n1-c1ccccc1` yielded an inhibition in experiment [2] of 28%.

With `CCCc1ccc(S(=O)(=O)N2C[C@H](S)C[C@H]2c2nnc(SC)n2-c2ccccc2)cc1`, half-maximal inhibition in experiment [1] (IC50) required 1.2 µM. Regarding `CSc1nnc([C@@H]2C[C@@H](S)CN2S(=O)(=O)c2ccc3ccccc3c2)n1-c1ccc(F)c(Cl)c1`, inhibition in experiment [1] was half-maximal at 1.2 µM (IC50).

Compound `CSc1nnc([C@@H]2C[C@@H](S)CN2S(=O)(=O)c2ccc(C(F)(F)F)cc2)n1-c1ccccc1` yielded an IC50 in experiment [1] of 1.3 µM. The same measure, in the same setting: the same measure for `CSc1nnc([C@@H]2C[C@@H](S)CN2S(=O)(=O)c2ccc3ccccc3c2)n1Cc1ccc(F)cc1`: 0.15 µM.
